Source: patent publication US9518976B2, “Methods for identifying or assaying for agents that increase beta-cell proliferation, insulin secretion, insulin sensitivity, glucose tolerance and decrease fat mass” (The Trustees of Columbia University in The City of New York, priority 2006, dated 2016)
Ends that are not written are not given here.

Assays:
Wild type mice [1] = experiment: Osteocalcin subcutaneous infusion in wt mice: glucose tolerance after glucose injection; type: in vivo, mouse; settings: 0.3 or 3 ng/hour s.c. for 14 days, then single glucose injection, 120 minute period, vs PBS
Protocol: FIG. 11. […] Wt mice were infused subcutaneously with indicated doses of recombinant osteocalcin or PBS for 14 days before receiving a single injection of glucose. Blood glucose was measured thereafter at indicated times.
(§1) For glucose tolerance test (GTT), glucose (2 g/kg body weight (BW)) was injected intraperitoneally (IP) after an overnight fast and blood glucose was monitored using blood glucose strips and the Accu-Check glucometer (Roche) at indicated times. For glucose stimulated insulin secretion test (GSIS), glucose (3 g/kg BW) was injected IP after an overnight fast; sera were collected from tails and insulin measured as described (Mauvais-Jarvis et al., 2000). For insulin tolerance test (ITT), mice were fasted for six hours, injected IP with insulin (0.2 U/kg BW) and blood glucose levels were measured at indicated times as described (Mauvais-Jarvis et al., 2002). ITT data are presented as percentage of initial blood glucose concentration. […] Streptozotocin ([…] single injection, Sigma) was injected IP and blood glucose measured as described above every 2 days thereafter. […] Food intake was measured using metabolic cages as the daily change of food weight. Energy expenditure was measured using metabolic cages connected to a calorimeter (Columbus Instrument). Heat values (Kcal/Hr) were recorded over 2 days and reported to each mouse BW. […]

Wild type mice [2] = experiment: Osteocalcin subcutaneous infusion in wt mice: insulin sensitivity after insulin injection; type: in vivo, mouse; settings: 0.3 or 3 ng/hour s.c. for 18 days, then single insulin injection, 0-120 minutes, vs PBS
Protocol: FIG. 12. […] Wt mice were infused subcutaneously with indicated doses of recombinant osteocalcin or PBS for 18 days before receiving a single injection of insulin. Blood glucose was measured thereafter at indicated times.
as §1

Wild type adipocytes = experiment: Adiponectin expression in wt adipocytes treated with osteocalcin (real time PCR); type: cell-based, mouse; settings: wild type adipocytes treated for 4 hours; real time PCR; vs vehicle
From the text: (§2) FIG. 7. Esp−/− Mice Are a Model of Increased Osteocalcin Bioactivity. (A-G) Comparison between 6-week-old WT, Esp−/, Ocn+/−, and Esp−/−; Ocn+/− mice. (A) Blood glucose levels. (B) Serum insulin levels. (C) Serum adiponectin levels. (D) GTT. (E) ITT. (F) GSIS test. (G) Quantification of the number of Ki67-immunoreactive cells in pancreatic islets. […] (J) Expression of Adiponectin in WT adipocytes cocultured with osteoblasts treated with warfarin or vehicle. (K) Expression of Adiponectin in WT adipocytes cultured in presence of vehicle or of 1 ng/ml of commercially available carboxylated osteocalcin (Immunotopics) or bacterially produced uncarboxylated osteocalcin. (L) Expression of Insulin and Cyclin D1 in WT islets cultured in presence of 0.3 ng/ml of bacterially produced uncarboxylated osteocalcin or vehicle. (M) Metabolic parameters and total serum osteocalcin levels in control and obese patients. (N-O) Quantification of carboxylated osteocalcin (HA-bound osteocalcin) in control and obese patients. In (A)-(C) and (G)-(L): *p<0.05 versus WT (Student's t test); in (D)-(F), °p<0.05 versus WT and *p % 0.001 versus WT (ANOVA followed by post hoc analysis).
FIG. 15. […] Wt adipocytes were treated for 4 hours with recombinant full-length osteocalcin (1-46) or a truncated form (1-36) or vehicle. Adiponectin expression was then quantified by real time PCR.
Primary adipocytes were isolated from epididymal fat pads by collagenase digestion. Briefly, minced adipose tissue was digested by 1 mg/ml collagenase P in KRP Buffer (20 mM HEPES, 120 mM NaCl, 6 mM KCl, 1.2 mM MgSO4, 1 mM CaCl2, 0.6 mM Na2HPO4, 0.4 mM NaH2PO4, 2.5 mM D-glucose, 2% BSA, pH 7.4) for 1 h at 37° C. The isolated cells were washed twice with KRP Buffer before being cultured in αMEM/1% FBS at 37° C. in 5% CO2.
All gene expression analyses were performed using real time PCR. DNAse I-treated total RNA was converted to cDNA with the SuperScript III kit (Invitrogen). Real-time PCR were performed using the Taq SYBR Green Supermix with ROX (Biorad) on an MX3000 instrument (Stratagene); beta-actin amplification was used as an internal reference for each sample. All primers were from SuperArray.
Experiments were performed to test whether truncated osteocalcin was as effective as full-length uncarboxylated osteocalcin in stimulating adiponectin secretion from mouse adipocytes in vitro. Wild type adipocytes were treated for 4 hours with recombinant full-length osteocalcin (1-46) or a truncated form (1-36) (having a deletion of the […] ten amino acids from the C-terminal end) or vehicle. Adiponectin expression was then quantified by real time PCR. […]

WT islets = experiment: Insulin and Cyclin D1 expression in WT islets cultured with uncarboxylated osteocalcin; type: cell-based, mouse; settings: 0.3 ng/ml (FIG. 7L)
From the text: as §2
Islets were isolated using a Histopaque gradient (1077, Sigma). In brief, after clamping the common bile duct at its entrance to the duodenum, 1 mg/ml collagenase P (Sigma) in M199 medium (GIBCO) was injected into the duct. […]

[3] = listed as recombinant osteocalcin

In the case of “uncarboxylated osteocalcin: Recombinant mouse osteocalcin bacterially produced, cleaved from GST with thrombin; completely undercarboxylated at all three sites (YLGASVPSPDPLEPTREQCELNPACDELSDQYGLKTAYKRIYGITI; not fully specified; ends and bridges not checked; UniProt P86546 50-95, looked up)”, the glucose tolerance (Wild type mice [1]) is reported as “increased glucose tolerance”, the glucose tolerance (Wild type mice [1]; [3]) is reported as “increases glucose tolerance” and the insulin sensitivity (Wild type mice [2]) is reported as “increased”. The insulin sensitivity (Wild type mice [2]; [3]) was “increases insulin sensitivity”, the Adiponectin expression increase (Wild type adipocytes) was ~1.5 fold and the “expression of Cyclin D1, marker of beta-cell proliferation” value (WT islets) was “induced”. The insulin expression (WT islets) was “induced”.
